Where two headings read alike, the source gives them in different places.
Key:
[1] = DPPH radical scavenging (antioxidant) assay; conditions: compounds from red maple stems
Description: The DPPH radical scavenging activity of ascorbic acid (vitamin C) and the synthetic commercial antioxidant, butylated hydroxytoluene (BHT), are also assayed as positive controls.
The DPPH radical scavenging activity of ascorbic acid (vitamin C) and the synthetic commercial antioxidant, butylated hydroxytoluene (BHT), are also assayed as positive controls. […] Absorbance is read after 30 min at 515 nm, and the scavenging capacity (SC) is calculated as SC %=(A0−A1/A0)×100, where A0 is the absorbance of the reagent blank and A1 is the absorbance of test samples. All tests are performed in triplicate.

HCT-116 cells = assay: MTS antiproliferative assay, HCT-116; format: cell-based; conditions: Homo sapiens
Description: (§1) The extracts are solubilized in DMSO and normalized based on their phenolic content to evaluate their antiproliferative activities against the colon cell lines. […] Caco-2 cells are grown in EMEM medium supplemented with 10% v/v fetal bovine serum, 1% v/v nonessential amino acids, 1% v/v L-glutamine and 1% v/v antibiotic solution (Sigma). HT-29 and HCT-116 cells are grown in McCoy's 5a medium supplemented with 10% v/v fetal bovine serum, 1% v/v nonessential amino acids, 2% v/v HEPES and 1% v/v antibiotic solution. CCD-18Co cells are grown in EMEM medium supplemented with 10% v/v fetal bovine serum, 1% v/v nonessential amino acids, 1% v/v L-glutamine and 1% v/v antibiotic solution and are used from PDL between 26 to 35 for all experiments. […] The pH of the culture medium is determined using pH indicator paper (pHydrion™ Brilliant, pH 5.5-9.0, Micro Essential Laboratory, NY, USA) inside the incubator. Cells are counted using a hemacytometer and are plated at 3,000-5,000 cells per well, in a 96-well format for 24 or 48 h prior to sample treatment depending on the cell line. […] Control cells are also run in parallel and subjected to the same changes in medium with 0.5% DMSO.
(§2) At the end of 48 or 72 h of treatment with serially diluted test samples, 20 μl of the MTS reagent, in combination with the electron coupling agent, phenazine methosulfate, is added to the wells and cells are incubated at 37° C. in a humidified incubator for 3 h. Absorbance at 490 nm (OD490) is monitored with a spectrophotometer (SpectraMax M2, Molecular Devices Corp., operated by SoftmaxPro v.4.6 software, Sunnyvale, Calif., USA), to obtain the number of cells relative to control populations. 20 μl of etoposide 4 mg/ml (Sigma) is assayed as a negative control of proliferation. […] Data are presented as the mean±S.D. of three separated experiments on each cell line.

Caco-2 cells = assay: MTS antiproliferative assay, Caco-2; format: cell-based; conditions: Homo sapiens
Description: The extracts are solubilized in DMSO and normalized based on their phenolic content to evaluate their antiproliferative activities against the colon cell lines. […] CCD-18Co cells are grown in EMEM medium supplemented with 10% v/v fetal bovine serum, 1% v/v nonessential amino acids, 1% v/v L-glutamine and 1% v/v antibiotic solution and are used from PDL between 26 to 35 for all experiments. […] The pH of the culture medium is determined using pH indicator paper (pHydrion™ Brilliant, pH 5.5-9.0, Micro Essential Laboratory, NY, USA) inside the incubator. […] Control cells are also run in parallel and subjected to the same changes in medium with 0.5% DMSO. […] At the end of 48 or 72 h of treatment with serially diluted test samples, 20 μl of the MTS reagent, in combination with the electron coupling agent, phenazine methosulfate, is added to the wells and cells are incubated at 37° C. in a humidified incubator for 3 h. […] Data are presented as the mean±S.D. of three separated experiments on each cell line.

HT-29 cells = assay: MTS antiproliferative assay, HT-29; format: cell-based; conditions: Homo sapiens
Description: as §1, §2

CCD-18Co cells = assay: MTS antiproliferative assay, normal colon CCD-18Co; format: cell-based; conditions: Homo sapiens
Description: as §1, §2

α-glucosidase = α-glucosidase (Saccharomyces cerevisiae, UniProt P53341); assay: α-Glucosidase inhibition, red maple stem compounds (Example 4); format: biochemical; conditions: for α-glucosidase inhibitory activity (in words): by number of galloyl groups
Sequence of α-glucosidase (P53341 whole entry): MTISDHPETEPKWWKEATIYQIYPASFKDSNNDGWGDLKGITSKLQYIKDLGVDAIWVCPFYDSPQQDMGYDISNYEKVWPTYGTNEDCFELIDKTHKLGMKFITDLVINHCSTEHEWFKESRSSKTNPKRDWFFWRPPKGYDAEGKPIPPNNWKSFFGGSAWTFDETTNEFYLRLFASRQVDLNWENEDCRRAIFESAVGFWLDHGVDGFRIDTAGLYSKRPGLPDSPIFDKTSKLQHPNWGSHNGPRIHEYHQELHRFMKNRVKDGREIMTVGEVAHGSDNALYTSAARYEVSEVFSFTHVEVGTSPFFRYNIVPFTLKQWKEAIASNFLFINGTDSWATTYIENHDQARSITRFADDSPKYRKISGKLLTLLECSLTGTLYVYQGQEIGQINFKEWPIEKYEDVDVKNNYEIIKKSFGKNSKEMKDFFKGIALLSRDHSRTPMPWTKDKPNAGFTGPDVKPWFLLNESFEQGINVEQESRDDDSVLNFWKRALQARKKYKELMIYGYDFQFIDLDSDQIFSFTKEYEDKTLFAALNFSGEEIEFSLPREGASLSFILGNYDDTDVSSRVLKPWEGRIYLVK

[2] = HCT-116, read-out: IC50 HCT-116 48 h, ginnalins, 48 h treatment
[3] = HCT-116, ginnalins, 72 h treatment, read-out: IC50 HCT-116 72 h
[4] = Caco-2, read-out: IC50 Caco-2 48 h, ginnalins, 48 h treatment
[5] = Caco-2, ginnalins, 72 h treatment, read-out: IC50 Caco-2 72 h
[6] = HT-29, read-out: IC50 HT-29 48 h, ginnalins, 48 h treatment
[7] = HT-29, ginnalins, 72 h treatment, read-out: IC50 HT-29 72 h
[8] = ginnalins, 72 h treatment, normal colon cells, read-out: IC50 CCD-18Co 72 h

SMILES: Cc1cc(C(C)(C)C)c(O)c(C(C)(C)C)c1 [BHT, butylated hydroxytoluene, reference compound]
- IC50 [1]: 1634 ± 16.1 µM

SMILES: COc1cc([C@@H]2c3cc4c(cc3[C@@H](O[C@@H]3O[C@@H]5CO[C@@H](C)O[C@H]5[C@H](O)[C@H]3O)[C@H]3COC(=O)[C@H]23)OCO4)cc(OC)c1O [Etoposide, reference compound]
- IC50 (HCT-116 cells; HCT-116, MTS assay control, read-out: IC50 HCT116 (control of proliferation)): 10 to 20 µM
- IC50 (Caco-2 cells; Caco-2, MTS assay control, read-out: IC50 Caco-2 (control of proliferation)): 10 to 20 µM
- IC50 (HT-29 cells; HT-29, MTS assay control, read-out: IC50 HT29 (control of proliferation)): 10 to 20 µM
- IC50 (CCD-18Co cells; MTS assay control, read-out: IC50 CCD-18Co (control of proliferation)): 30 to 40 µM

SMILES: O=C(O[C@H]1[C@H](O)[C@@H](CO)OC[C@@H]1O)c1cc(O)c(O)c(O)c1 [RMS 4, 3-O-galloyl-1,5-anhydro-D-glucitol]
- α-glucosidase inhibitory activity (in words) (α-glucosidase): do not show any activity
- IC50 [1]: 48 ± 1.11 µM

SMILES: O=C(O[C@H]1[C@H](O)[C@@H](O)CO[C@@H]1CO)c1cc(O)c(O)c(O)c1 [RMS 5, 4-O-galloyl-1,5-anhydro-D-glucitol]
- α-glucosidase inhibitory activity (in words) (α-glucosidase): do not show any activity
- IC50 [1]: 45.6 ± 1.45 µM

SMILES: O=C(O[C@H]1[C@H](O)[C@@H](OC(=O)c2cc(O)c(O)c(O)c2)CO[C@@H]1CO)c1cc(O)c(O)c(O)c1 [RMS 7, 2,4-di-O-galloyl-1,5-anhydro-D-glucitol]
- inhibitors of α-glucosidase enzyme, concentration dependence (α-glucosidase): inhibitors of α-glucosidase enzyme in a concentration-dependent manner
- α-glucosidase inhibitory activity (in words) (α-glucosidase): moderate α-glucosidase inhibitory activity
- IC50 [1]: 18.6 ± 0.77 µM

SMILES: O=C(O[C@H]1[C@H](O)[C@@H](CO)OC[C@@H]1OC(=O)c1cc(O)c(O)c(O)c1)c1cc(O)c(O)c(O)c1 [RMS 9, 2,3-di-O-galloyl-1,5-anhydro-D-glucitol]
- inhibitors of α-glucosidase enzyme, concentration dependence (α-glucosidase): inhibitors of α-glucosidase enzyme in a concentration-dependent manner
- α-glucosidase inhibitory activity (in words) (α-glucosidase): moderate α-glucosidase inhibitory activity
- IC50 [1]: 18.8 ± 0.77 µM

SMILES: O=C(OC[C@H]1OC[C@H](O)[C@@H](O)[C@@H]1O)c1cc(O)c(O)c(O)c1 [RMS 12, 6-O-galloyl-1,5-anhydro-D-glucitol]
- α-glucosidase inhibitory activity (in words) (α-glucosidase): do not show any activity
- IC50 (HCT-116 cells; [2]): 25.1 ± 1.8 µg/mL
- IC50 (HCT-116 cells; [3]): 20 ± 2 µg/mL
- IC50 [1]: 32.7 ± 0.48 µM
- IC50 (Caco-2 cells; [4]): 31.1 ± 1.9 µg/mL
- IC50 (Caco-2 cells; [5]): 22.6 ± 1.9 µg/mL
- IC50 (HT-29 cells; [6]): 36.2 ± 1.5 µg/mL
- IC50 (HT-29 cells; [7]): 27.3 ± 0.6 µg/mL
- IC50 (CCD-18Co cells; [8]): 47.1 ± 5.3 µg/mL

SMILES: O=C(O)c1cc(O)c(O)c(O)c1 [RMS 14, gallic acid]
- IC50 [1]: 20.4 ± 0.34 µM

SMILES: COC(=O)c1cc(OC)c(O)c(OC)c1 [RMS 15, Methyl 3,5-dimethoxy-4-hydroxybenzoate]
- IC50 [1]: 991 ± 80.6 µM

SMILES: COC(=O)c1cc(O)c(O)c(O)c1 [RMS 17, Methyl gallate]
- inhibitors of α-glucosidase enzyme, concentration dependence (α-glucosidase): inhibitors of α-glucosidase enzyme in a concentration-dependent manner
- IC50 [1]: 16.5 ± 0.26 µM

SMILES: O=C(OC[C@H]1OC[C@H](O)[C@@H](OC(=O)c2cc(O)c(O)c(O)c2)[C@@H]1O)c1cc(O)c(O)c(O)c1 [RMS 18, 3,6-di-O-galloyl-1,5-anhydro-D-glucitol]
- inhibitors of α-glucosidase enzyme, concentration dependence (α-glucosidase): inhibitors of α-glucosidase enzyme in a concentration-dependent manner
- α-glucosidase inhibitory activity (in words) (α-glucosidase): moderate α-glucosidase inhibitory activity
- IC50 [1]: 18.5 ± 0.44 µM

SMILES: O=C(OC[C@H]1OC[C@H](OC(=O)c2cc(O)c(O)c(O)c2)[C@@H](O)[C@@H]1OC(=O)c1cc(O)c(O)c(O)c1)c1cc(O)c(O)c(O)c1 [RMS 24, 2,4,6-tri-O-galloyl-1,5-anhydro-D-glucitol]
- inhibitors of α-glucosidase enzyme, concentration dependence (α-glucosidase): inhibitors of α-glucosidase enzyme in a concentration-dependent manner
- α-glucosidase inhibitory activity (in words) (α-glucosidase): powerful α-glucosidase inhibitory activity
- IC50 [1]: 13.1 µM

SMILES: O=C(OC[C@H]1OC[C@H](OC(=O)c2cc(O)c(O)c(O)c2)[C@@H](O)[C@@H]1O)c1cc(O)c(O)c(O)c1 [RMS 26, 2,6-di-O-galloyl-1,5-anhydro-D-glucitol]
- inhibitors of α-glucosidase enzyme, concentration dependence (α-glucosidase): inhibitors of α-glucosidase enzyme in a concentration-dependent manner
- α-glucosidase inhibitory activity (in words) (α-glucosidase): moderate α-glucosidase inhibitory activity
- IC50 (HCT-116 cells; [2]): 21.5 ± 1.6 µg/mL
- IC50 (HCT-116 cells; [3]): 16.3 ± 2.1 µg/mL
- IC50 [1]: 17.7 ± 0.21 µM
- IC50 (Caco-2 cells; [4]): 28.8 ± 1.8 µg/mL
- IC50 (Caco-2 cells; [5]): 21.7 ± 1 µg/mL
- IC50 (HT-29 cells; [6]): 31 ± 2.6 µg/mL
- IC50 (HT-29 cells; [7]): 24.1 ± 1.3 µg/mL
- IC50 (CCD-18Co cells; [8]): 46.6 ± 3.6 µg/mL

SMILES: O=C(O[C@H]1CO[C@H](CO)[C@@H](O)[C@@H]1O)c1cc(O)c(O)c(O)c1 [RMS 27, 2-O-galloyl-1,5-anhydro-D-glucitol]
- α-glucosidase inhibitory activity (in words) (α-glucosidase): do not show any activity
- IC50 (HCT-116 cells; [2]): 27 ± 1.9 µg/mL
- IC50 (HCT-116 cells; [3]): 22.3 ± 2.4 µg/mL
- IC50 [1]: 30.5 ± 0.8 µM
- IC50 (Caco-2 cells; [4]): 35 ± 1.4 µg/mL
- IC50 (Caco-2 cells; [5]): 29.8 ± 1.2 µg/mL
- IC50 (HT-29 cells; [6]): 33.8 ± 2 µg/mL
- IC50 (HT-29 cells; [7]): 30.1 ± 1.3 µg/mL

SMILES: COC(=O)c1cc(O)c(O)c(OC)c1 [RMS 28, 3,4-dihydroxy-5-methoxybenzoic acid methyl ester]
- IC50 [1]: 116 ± 4.98 µM

SMILES: O=C1O[C@H]([C@@H](O)CO)C(O)=C1O [Vitamin C, ascorbic acid, reference compound]
- IC50 [1]: 71 ± 1.61 µM

— US20130310332A1, “MAPLE TREE-DERIVED PRODUCTS AND USES THEREOF” (UNIVERSITY OF RHODE ISLAND, priority 2010, published 2013)
